In the test the target is T1, human S1P1 receptor (Homo sapiens, UniProt P21453).
T1 construct: expressed in transfected cells; membranes used
Kind of test: GTP γ35S binding assay for S1P1 activity. The class given is biochemical. Particulars: membranes, 30 min at 25° C., read-out: S1P1 EC50 (Activity potency: S1P1 receptor from GTP γ35S). The procedure: Compounds were tested for S1P1 activity using the GTP γ^35S binding assay. These compounds may be assessed for their ability to activate or block activation of the human S1P1 receptor in cells stably expressing the S1P1 receptor.
GTP γ^35S binding was measured in the medium containing (mM) HEPES 25, pH 7.4, MgCl2 10, NaCl 100, dithitothreitol 0.5, digitonin 0.003%, 0.2 nM GTP γ^35S, and 5 μg membrane protein in a volume of 150 μl. Test compounds were included in the concentration range from 0.08 to 5,000 nM unless indicated otherwise. Membranes were incubated with 100 μM 5′-adenylylimmidodiphosphate for 30 min, and subsequently with 10 μM GDP for 10 min on ice. Drug solutions and membrane were mixed, and then reactions were initiated by adding GTP γ^35S and continued for 30 min at 25° C. Reaction mixtures were filtered over Whatman GF/B filters under vacuum, and washed three times with 3 mL of ice-cold buffer (HEPES 25, pH7.4, MgCl2 10 and NaCl 100). Filters were dried and mixed with scintillant, and counted for ^35S activity using a β-counter. Agonist-induced GTP γ^35S binding was obtained by subtracting that in the absence of agonist. Binding data were analyzed using a non-linear regression method. In case of antagonist assay, the reaction mixture contained 10 nM S1P in the presence of test antagonist at concentrations ranging from 0.08 to 5000 nM.
In general terms: GTPγS resists hydrolysis and so accumulates on activated G proteins.

T1 sequence (P21453 whole entry): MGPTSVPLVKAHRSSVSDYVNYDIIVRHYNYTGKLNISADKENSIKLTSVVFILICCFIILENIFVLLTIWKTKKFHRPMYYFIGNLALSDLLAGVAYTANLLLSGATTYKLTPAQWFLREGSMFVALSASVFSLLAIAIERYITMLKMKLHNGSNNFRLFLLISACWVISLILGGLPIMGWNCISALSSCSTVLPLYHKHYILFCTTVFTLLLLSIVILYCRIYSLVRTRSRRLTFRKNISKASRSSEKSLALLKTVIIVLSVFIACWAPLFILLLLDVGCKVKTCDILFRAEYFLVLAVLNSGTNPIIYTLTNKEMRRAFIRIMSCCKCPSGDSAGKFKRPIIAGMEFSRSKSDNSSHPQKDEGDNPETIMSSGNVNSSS

As a reminder, the EC50 is the concentration needed to bring the measured effect to its halfway point. For the compound `O=P(O)(O)CCCNCc1ccc(OCCCCCc2ccccc2)c(-c2ccco2)c1` [Compound 1, [3-({3-(2-furyl)-4-[(5-phenylpentyl)oxy]benzyl}amino)propyl]phosphonic acid], the EC50 stood at 0.9 nM.
The same measure for `O=P(O)(O)CCCNCc1ccc(OCCCCCc2ccccc2)c(-c2ncco2)c1` [Compound 2, [3-({3-(1,3-oxazol-2-yl)-4-[(5-phenylpentyl)oxy]benzyl}amino)propyl]phosphonic acid]: 11.9 nM; for `O=P(O)(O)CCCNCc1ccc(OCCCCCc2ccccc2)c(-c2nccs2)c1` [Compound 3, [3-({4-[(5-phenylpentyl)oxy]-3-(1,3-thiazol-2-yl)benzyl}amino)propyl]phosphonic acid]: 2 nM; for `O=P(O)(O)CCCNCc1ccc(OCCCCCc2ccccc2)c(-c2ccoc2)c1` [Compound 4, [3-({3-(3-furyl)-4-[(5-phenylpentyl)oxy]benzyl}amino)propyl]phosphonic acid]: 0.6 nM.
In the case of `O=P(O)(O)CCCNCc1ccc(OCCCCCc2ccccc2)c(-c2ccsc2)c1` [Compound 5, [3-({4-[(5-phenylpentyl)oxy]-3-(3-thienyl)benzyl}amino)propyl]phosphonic acid], the EC50 is 3.3 nM.
Next, `CC(C)Cc1ccc(CCCOc2ccc(CNCCCP(=O)(O)O)cc2-c2cccs2)cc1` [Compound 7, [3-({4-[3-(4-isobutylphenyl)propoxy]-3-(2-thienyl)benzyl}amino)propyl]phosphonic acid]: 14.9 nM; `O=P(O)(O)CCCNCc1ccc(OCCCCCc2ccccc2)c(C2=CCCC2)c1` [Compound 8, [3-({3-cyclopent-1-en-1-yl-4-[(5-phenylpentyl)oxy]benzyl}amino)propyl]phosphonic acid]: 3.4 nM; `O=P(O)(O)OCCNCc1ccc(OCCCCCc2ccccc2)c(-c2cccs2)c1` [Compound 9, 2-({4-[(5-phenylpentyl)oxy]-3-(2-thienyl)benzyl}amino)ethyl dihydrogen phosphate]: 1.5 nM.
The same measure for `O=S(=O)(O)CCCNCc1ccc(OCCCCCc2ccccc2)c(-c2cccs2)c1` [Compound 10, 3-({4-[(5-phenylpentyl)oxy]-3-(2-thienyl)benzyl}amino)propane-1-sulfonic acid]: 10.1 nM; for `CP(=O)(O)CCCNCc1ccc(OCCCCCc2ccccc2)c(-c2cccs2)c1` [Compound 11, methyl[3-({4-[(5-phenylpentyl)oxy]-3-(2-thienyl)benzyl}amino)propyl]phosphinic acid]: 23 nM; for `CC(CO)NCc1ccc(OCCCCCc2ccccc2)c(-c2cccs2)c1` (centres unmarked) [Compound 12, 2-({4-[(5-phenylpentyl)oxy]-3-(2-thienyl)benzyl}amino)propan-1-ol]: 241 nM.
The same measure for `OCC(CO)NCc1ccc(OCCCCCc2ccccc2)c(-c2cccs2)c1` [Compound 13, 2-({4-[(5-phenylpentyl)oxy]-3-(2-thienyl)benzyl}amino)propane-1,3-diol]: 714 nM; for `O=P(O)(O)CCCNCc1ccc(OCCCCCc2ccccc2)c(-c2ccoc2)n1` [Compound 14, {3-[({6-(3-furyl)-5-[(5-phenylpentyl)oxy]pyridin-2-yl}methyl)amino]propyl}phosphonic acid]: 1 nM; for `O=P(O)(O)CCCNCc1ccc(OCCCCCc2ccccc2)c(-c2cccs2)n1` [Compound 15, {3-[({5-[(5-phenylpentyl)oxy]-6-(2-thienyl)pyridin-2-yl}methyl)amino]propyl}phosphonic acid]: 0.77 nM.
For `CCCCCCCCCOc1ccc(CNCCCP(=O)(O)O)cc1-c1cccs1` [Compound 16, (3-{[4-(nonyloxy)-3-(2-thienyl)benzyl]amino}propyl)phosphonic acid], the EC50 came out at 517 nM.
The same measure for `CCCCCCCCCCOc1ccc(CNCCCP(=O)(O)O)cc1-c1cccs1` [Compound 17, (3-{[4-(decyloxy)-3-(2-thienyl)benzyl]amino}propyl)phosphonic acid]: 294 nM; for `O=P(O)(O)CCCNCc1ccc(OCCCCCc2ccccc2)c(-c2ccc(F)s2)c1` [Compound 18]: 2 nM.

The record behind these values is patent US8741875B2, “Compounds as receptor modulators with therapeutic utility” (Allergan, Inc., priority 2009, dated 2014).
